According to patent US9029325B2, “Amylin analogues and pharmaceutical compositions thereof” (Novo Nordisk A/S, priority 2011, dated 2015):
Starred links: 1 amine or outer side, 2 acyl side, 3 side chain; linkers in the order of their positions; H or OH if unused. Positions of bridges follow the written chain, without caps; N, C: chain ends. Non-standard residues stand in square brackets, D forms with d. Residues, ends and D or L forms follow the SMILES beside them. Groups on a side chain read outwards from the residue. *: point of attachment. C20 diacid = O=C(O)CCCCCCCCCCCCCCCCCCC(=O)*; C18 diacid = O=C(O)CCCCCCCCCCCCCCCCC(=O)*; γGlu = O=C(O)[C@H](CCC(=O)[*:2])N[*:1]; Orn = NCCC[C@H](N)C(=O)O; AEEA = NCCOCCOCC(=O)O

Assays:
[1] = Assay (III) ThT fibrillation assay for physical stability; type: physicochemical; conditions: for Th T pH 4.0 lag time (h): 37° C., orbital shaking 960 rpm; for ThT pH 4.0 lag time: Table 9
Excerpt: Low physical stability of a polypeptide may lead to amyloid fibril formation, which is observed as well-ordered, thread-like macromolecular structures in the sample eventually resulting in gel formation. This has traditionally been measured by visual inspection of the sample. However, that kind of measurement is very subjective and depending on the observer. Therefore, the application of a small molecule indicator probe is much more advantageous. Thioflavin T (ThT) is such a probe and has a distinct fluorescence signature when binding to fibrils [Naiki et al. (1989) Anal. Biochem. 177, 244-249; LeVine (1999) Methods. Enzymol. […], 274-284].
The time course for fibril formation can be described by a sigmoidal curve with the following expression [Nielsen et al. (2001) Biochemistry 40, 6036-6046]:
[formula] Here, F is the ThT fluorescence at the time t. The constant t0 is the time needed to reach 50% of maximum fluorescence. The two important parameters describing fibril formation are the lag-time calculated by t0−2T and the apparent rate constant kapp=1/τ.
Few of those intermediates nucleate to form a template onto which further intermediates may assembly and the fibrillation proceeds. The lag-time corresponds to the interval in which the critical mass of nucleus is built up and the apparent rate constant is the rate with which the fibril itself is formed.
Samples were prepared freshly before each assay. Each sample composition is described in each example. The pH of the sample was adjusted to the desired value using appropriate amounts of concentrated NaOH and HClO4 or HCl. Thioflavin T was added to the samples from a stock solution in H2O to a final concentration of 1 μM.
Sample aliquots of 200 μl were placed in a 96 well microtiter plate (Packard OptiPlate™-96, white polystyrene). Usually, four or eight replica of each sample (corresponding to one test condition) were placed in one column of wells. The plate was sealed with Scotch Pad (Qiagen).
Incubation at given temperature, shaking and measurement of the ThT fluorescence emission were done in a Fluoroskan Ascent FL fluorescence platereader or Varioskan platereader (Thermo Labsystems). The temperature was adjusted to 37° C. The orbital shaking was adjusted to 960 rpm with an amplitude of 1 mm in all the presented data. Fluorescence measurement was done using excitation through a 444 nm filter and measurement of emission through a 485 nm filter.
Each run was initiated by incubating the plate at the assay temperature for 10 min. The plate was measured every 20 minutes for a desired period of time. Between each measurement, the plate was shaken and heated as described.
The measurement points were saved in Microsoft Excel format for further processing and curve drawing and fitting was performed using GraphPad Prism. The background emission from ThT in the absence of fibrils was negligible. The data points are typically a mean of four or eight samples and shown with standard deviation error bars. Only data obtained in the same experiment (i.e. samples on the same plate) are presented in the same graph ensuring a relative measure of fibrillation […].
The data set may be fitted to Eq. (1). However, since full sigmodial curves in this case are not always achieved during the measurement time, the degree of fibrillation is expressed as ThT fluorescence tabulated as the mean of the samples and shown with the standard deviation at various time points.
The polypeptide concentration in each of the tested formulations were measured both before application in the ThT fibrillation assay (“Initial”) and after completion of the ThT fibrillation (“After ThT assay”). Concentrations were determined by reverse HPLC methods using a pramlintide standard as a reference. Before measurement after completion 150 μl was collected from each of the replica and transferred to an Eppendorf tube. These were centrifuged at 30000 G for 40 mins. […]

[2] = Assay (I) efficacy testing on appetite (food intake), ad libitum fed rat model; type: in vivo, Sprague Dawley (SD) rats; conditions: 3 nmol/kg
Summary of the method: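 Ad libitum fed SD rats (200-250 g) on a reversed light cycle, housed individually, received a single 0.01-3 mg/kg dose ip, po or sc just before lights-off. Individual food intake recorded hourly for 7 h, then at 24 h and sometimes 48 h, versus vehicle; Grubbs outliers excluded.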

| Th T pH 4.0 lag time (h) [1] [h] | ThT pH 4.0 lag time [1] [hr] | SMILES | Food intake reduction 0-24 h 3 nmol/kg (%) [2] [%] | Food intake reduction 24-48 h 3 nmol/kg (%) [2] [%] |
| --- | --- | --- | --- | --- |
| >45 | >45 | CC[C@H](C)[C@H](NC(=O)[C@@H]1CCCN1C(=O)CNC(=O)[C@H](Cc1ccccc1)NC(=O)[C@H](CC(N)=O)NC(=O)[C@H](CC(N)=O)NC(=O)[C@H](CO)NC(=O)[C@H](CO)NC(=O)[C@H](Cc1c[nH]cn1)NC(=O)[C@H](CCCNC(=N)N)NC(=O)[C@H](CC(C)C)NC(=O)[C@H](Cc1ccccc1)NC(=O)[C@H](CCC(=O)O)NC(=O)[C@H](C)NC(=O)[C@H](CC(C)C)NC(=O)[C@H](CCCNC(=N)N)NC(=O)[C@H](CCC(N)=O)NC(=O)[C@@H](NC(=O)[C@H](C)NC(=O)[C@@H]1CSSC[C@H](NC(=O)CNC(=O)CC[C@H](NC(=O)CCCCCCCCCCCCCCCCCCC(=O)O)C(=O)O)C(=O)N[C@@H](CC(N)=O)C(=O)N[C@@H]([C@@H](C)O)C(=O)N[C@@H](C)C(=O)N[C@@H]([C@@H](C)O)C(=O)N1)[C@@H](C)O)C(=O)N[C@@H](CC(C)C)C(=O)N1CCC[C@H]1C(=O)N1CCC[C@H]1C(=O)N[C@H](C(=O)N[C@@H](CC(N)=O)C(=O)N[C@H](C(=O)NCC(=O)N[C@@H](CO)C(=O)N[C@@H](CC(N)=O)C(=O)N[C@H](C(=O)N1CCC[C@H]1C(N)=O)[C@@H](C)O)C(C)C)[C@@H](C)O [Example 88, N-alpha-[(S)-4-Carboxy-4-(19-carboxynonadecanoylamino)butyryl]-[Gly1, Glu14, Arg17, Pro37]-pramlintide] ({C20 diacid-γGlu}-GCNTATCATQRLAEFLRHSSNNFGPILPPTNVGSNTP-NH2; disulfide 2-7 (inferred); C-terminus assumed) | – | – |
| >45 | >45 | CC[C@H](C)[C@H](NC(=O)[C@@H]1CCCN1C(=O)CNC(=O)[C@H](Cc1ccccc1)NC(=O)[C@H](CC(N)=O)NC(=O)[C@H](CC(N)=O)NC(=O)[C@H](CO)NC(=O)[C@H](CO)NC(=O)[C@H](Cc1c[nH]cn1)NC(=O)[C@H](CCCNC(=N)N)NC(=O)[C@H](CC(C)C)NC(=O)[C@H](Cc1ccccc1)NC(=O)[C@H](CCC(=O)O)NC(=O)[C@H](C)NC(=O)[C@H](CC(C)C)NC(=O)[C@H](CCCNC(=N)N)NC(=O)[C@H](CCC(N)=O)NC(=O)[C@@H](NC(=O)[C@H](C)NC(=O)[C@@H]1CSSC[C@H](NC(=O)[C@H](Cc2c[nH]cn2)NC(=O)CC[C@H](NC(=O)CCCCCCCCCCCCCCCCCCC(=O)O)C(=O)O)C(=O)N[C@@H](CC(N)=O)C(=O)N[C@@H]([C@@H](C)O)C(=O)N[C@@H](C)C(=O)N[C@@H]([C@@H](C)O)C(=O)N1)[C@@H](C)O)C(=O)N[C@@H](CC(C)C)C(=O)N1CCC[C@H]1C(=O)N1CCC[C@H]1C(=O)N[C@H](C(=O)N[C@@H](CC(N)=O)C(=O)N[C@H](C(=O)NCC(=O)N[C@@H](CO)C(=O)N[C@@H](CC(N)=O)C(=O)N[C@H](C(=O)N1CCC[C@H]1C(N)=O)[C@@H](C)O)C(C)C)[C@@H](C)O [Example 90, N-alpha-[(S)-4-Carboxy-4-(19-carboxynonadecanoylamino)butyryl]-[His1, Glu14, Arg17, Pro37]-pramlintide] ({C20 diacid-γGlu}-HCNTATCATQRLAEFLRHSSNNFGPILPPTNVGSNTP-NH2; disulfide 2-7 (inferred); C-terminus assumed) | – | – |
| – | – | CC[C@H](C)[C@H](NC(=O)[C@H](CCCCNC(=O)COCCOCCNC(=O)COCCOCCNC(=O)CC[C@H](NC(=O)CCCCCCCCCCCCCCCCC(=O)O)C(=O)O)NC(=O)CNC(=O)[C@H](Cc1ccccc1)NC(=O)[C@H](CC(N)=O)NC(=O)[C@H](CC(N)=O)NC(=O)[C@H](CO)NC(=O)[C@H](CO)NC(=O)[C@H](Cc1c[nH]cn1)NC(=O)[C@H](Cc1c[nH]cn1)NC(=O)[C@H](CC(C)C)NC(=O)[C@H](Cc1ccccc1)NC(=O)[C@H](CCC(=O)O)NC(=O)[C@H](C)NC(=O)[C@H](CC(C)C)NC(=O)[C@H](CCCNC(=N)N)NC(=O)[C@H](CCC(N)=O)NC(=O)[C@@H](NC(=O)[C@H](C)NC(=O)[C@@H]1CSSC[C@H](NC(=O)[C@@H](N)CCCCN)C(=O)N[C@@H](CC(N)=O)C(=O)N[C@@H]([C@@H](C)O)C(=O)N[C@@H](C)C(=O)N[C@@H]([C@@H](C)O)C(=O)N1)[C@@H](C)O)C(=O)N[C@@H](CC(C)C)C(=O)N1CCC[C@H]1C(=O)N1CCC[C@H]1C(=O)N[C@H](C(=O)N[C@@H](CC(N)=O)C(=O)N[C@H](C(=O)NCC(=O)N[C@@H](CO)C(=O)N[C@@H](CC(N)=O)C(=O)N[C@H](C(=O)N[C@@H](Cc1ccc(O)cc1)C(N)=O)[C@@H](C)O)C(C)C)[C@@H](C)O [compound 73] (H-KCNTATCATQRLAEFLHHSSNNFGK([AEEA-AEEA-γGlu-C18 diacid])ILPPTNVGSNTY-NH2; disulfide 2-7 (inferred); N-terminus and C-terminus assumed) | 29 | 2 |
| – | – | CC[C@H](C)[C@H](NC(=O)[C@@H]1CCCN1C(=O)CNC(=O)[C@H](Cc1ccccc1)NC(=O)[C@H](CC(N)=O)NC(=O)[C@H](CCC(N)=O)NC(=O)[C@H](CO)NC(=O)[C@H](CO)NC(=O)[C@H](Cc1c[nH]cn1)NC(=O)[C@H](Cc1c[nH]cn1)NC(=O)[C@H](CC(C)C)NC(=O)[C@H](Cc1ccccc1)NC(=O)[C@H](CCC(=O)O)NC(=O)[C@H](C)NC(=O)[C@H](CC(C)C)NC(=O)[C@H](CCCNC(=N)N)NC(=O)[C@H](CCC(N)=O)NC(=O)[C@@H](NC(=O)[C@H](C)NC(=O)[C@@H]1CSSC[C@H](NC(=O)[C@H](CCCCN)NC(=O)CC[C@H](NC(=O)CCCCCCCCCCCCCCCCCCC(=O)O)C(=O)O)C(=O)N[C@@H](CC(N)=O)C(=O)N[C@@H]([C@@H](C)O)C(=O)N[C@@H](C)C(=O)N[C@@H]([C@@H](C)O)C(=O)N1)[C@@H](C)O)C(=O)N[C@@H](CC(C)C)C(=O)N1CCC[C@H]1C(=O)N1CCC[C@H]1C(=O)N[C@H](C(=O)N[C@@H](CC(N)=O)C(=O)N[C@H](C(=O)NCC(=O)N[C@@H](CO)C(=O)N[C@@H](Cc1c[nH]cn1)C(=O)N[C@H](C(=O)N[C@@H](Cc1ccc(O)cc1)C(N)=O)[C@@H](C)O)C(C)C)[C@@H](C)O [compound 117] ({C20 diacid-γGlu}-KCNTATCATQRLAEFLHHSSQNFGPILPPTNVGSHTY-NH2; disulfide 2-7 (inferred); C-terminus assumed) | 50 | 35 |
| – | – | CC[C@H](C)[C@H](NC(=O)[C@@H]1CCCN1C(=O)CNC(=O)[C@H](Cc1ccccc1)NC(=O)[C@H](CC(N)=O)NC(=O)[C@H](CC(N)=O)NC(=O)[C@H](CO)NC(=O)[C@H](CO)NC(=O)[C@H](CCCNC(=N)N)NC(=O)[C@H](Cc1c[nH]cn1)NC(=O)[C@H](CC(C)C)NC(=O)[C@H](Cc1ccccc1)NC(=O)[C@H](CCC(=O)O)NC(=O)[C@H](C)NC(=O)[C@H](CC(C)C)NC(=O)[C@H](CCCNC(=N)N)NC(=O)[C@H](CCC(N)=O)NC(=O)[C@@H](NC(=O)[C@H](C)NC(=O)[C@@H]1CSSC[C@H](NC(=O)[C@H](CCCN)NC(=O)[C@@H](CCCNC(=N)N)NC(=O)[C@@H](CCCNC(=N)N)NC(=O)COCCOCCNC(=O)COCCOCCNC(=O)CC[C@H](NC(=O)CCCCCCCCCCCCCCCCC(=O)O)C(=O)O)C(=O)N[C@@H](CC(N)=O)C(=O)N[C@@H]([C@@H](C)O)C(=O)N[C@@H](C)C(=O)N[C@@H]([C@@H](C)O)C(=O)N1)[C@@H](C)O)C(=O)N[C@@H](CC(C)C)C(=O)N1CCC[C@H]1C(=O)N1CCC[C@H]1C(=O)N[C@H](C(=O)N[C@@H](CC(N)=O)C(=O)N[C@H](C(=O)NCC(=O)N[C@@H](CO)C(=O)N[C@@H](CC(N)=O)C(=O)N[C@H](C(=O)N[C@@H](Cc1ccc(O)cc1)C(N)=O)[C@@H](C)O)C(C)C)[C@@H](C)O [compound 120] ({C18 diacid-γGlu-AEEA-AEEA}-[dR][dR][Orn]CNTATCATQRLAEFLHRSSNNFGPILPPTNVGSNTY-NH2; disulfide 4-9 (inferred); C-terminus assumed) | 53 | 2 |
